Where two headings read alike, the source gives them in different places.
Columns and labels:
[1] = molecular target: full-length kinase/Nluc fusion proteins (Homo sapiens, UniProt O15197); assay: Apparent affinity (EC50) of energy transfer probes by titration onto live HEK293 cells expressing kinase/Nluc fusions (Table S1); type: binding; details: EPHB6, Nluc C; read-out: Probe EC50
[2] = molecular target: full-length kinase/Nluc fusion proteins (Homo sapiens, UniProt P06239); assay: as above; type: binding; details: LCK
[3] = molecular target: full-length kinase/Nluc fusion proteins (Homo sapiens, UniProt P12931); assay: as above; type: binding; details: SRC (NP_005408), Nluc orientation C; read-out: Probe EC50
[4] = molecular target: full-length kinase/Nluc fusion proteins (Homo sapiens, UniProt P54753); assay: as above; type: binding; details: EPHB3, Nluc C; read-out: Probe EC50
[5] = molecular target: T1, EPHB6 (Homo sapiens, UniProt O15197); assay: NanoBRET target engagement, EPHB6-NanoLuc, HEK293 cells (live, ATP depleted, permeabilized); details: for EC50: read-out: Tracer Affinity EC50, EPHB6-NanoLuc
T1 sequence (O15197 32-1021): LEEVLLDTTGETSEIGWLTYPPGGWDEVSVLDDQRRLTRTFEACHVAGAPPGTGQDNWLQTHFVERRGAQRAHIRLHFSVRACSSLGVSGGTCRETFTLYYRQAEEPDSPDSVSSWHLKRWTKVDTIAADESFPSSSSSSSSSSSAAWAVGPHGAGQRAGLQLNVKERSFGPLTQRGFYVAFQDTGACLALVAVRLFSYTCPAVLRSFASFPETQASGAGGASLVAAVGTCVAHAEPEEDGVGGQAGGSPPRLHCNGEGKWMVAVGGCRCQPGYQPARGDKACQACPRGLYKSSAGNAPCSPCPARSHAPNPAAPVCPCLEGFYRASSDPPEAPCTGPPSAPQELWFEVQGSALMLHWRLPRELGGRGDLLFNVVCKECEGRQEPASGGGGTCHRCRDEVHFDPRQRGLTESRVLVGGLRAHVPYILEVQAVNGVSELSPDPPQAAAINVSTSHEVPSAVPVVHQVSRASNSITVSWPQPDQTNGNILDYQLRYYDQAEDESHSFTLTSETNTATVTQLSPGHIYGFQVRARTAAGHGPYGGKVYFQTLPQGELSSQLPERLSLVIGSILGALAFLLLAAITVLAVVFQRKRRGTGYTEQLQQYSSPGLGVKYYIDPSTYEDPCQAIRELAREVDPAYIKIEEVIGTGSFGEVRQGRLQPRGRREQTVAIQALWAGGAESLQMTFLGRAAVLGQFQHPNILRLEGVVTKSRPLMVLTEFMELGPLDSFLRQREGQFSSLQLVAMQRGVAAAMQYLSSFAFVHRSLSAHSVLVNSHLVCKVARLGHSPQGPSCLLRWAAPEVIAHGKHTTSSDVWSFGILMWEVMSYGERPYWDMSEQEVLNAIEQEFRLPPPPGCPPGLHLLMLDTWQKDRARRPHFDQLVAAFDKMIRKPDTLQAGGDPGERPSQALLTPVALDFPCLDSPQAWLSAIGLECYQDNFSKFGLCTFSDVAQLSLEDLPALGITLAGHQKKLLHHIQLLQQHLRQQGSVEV

[6] = molecular target: T2, MuSK (Homo sapiens, UniProt O15146); assay: NanoBRET target engagement, MuSK-NanoLuc, HEK293 cells (live, ATP depleted, permeabilized); type: binding; details: read-out: Tracer Affinity EC50
T2 sequence (O15146 24-869): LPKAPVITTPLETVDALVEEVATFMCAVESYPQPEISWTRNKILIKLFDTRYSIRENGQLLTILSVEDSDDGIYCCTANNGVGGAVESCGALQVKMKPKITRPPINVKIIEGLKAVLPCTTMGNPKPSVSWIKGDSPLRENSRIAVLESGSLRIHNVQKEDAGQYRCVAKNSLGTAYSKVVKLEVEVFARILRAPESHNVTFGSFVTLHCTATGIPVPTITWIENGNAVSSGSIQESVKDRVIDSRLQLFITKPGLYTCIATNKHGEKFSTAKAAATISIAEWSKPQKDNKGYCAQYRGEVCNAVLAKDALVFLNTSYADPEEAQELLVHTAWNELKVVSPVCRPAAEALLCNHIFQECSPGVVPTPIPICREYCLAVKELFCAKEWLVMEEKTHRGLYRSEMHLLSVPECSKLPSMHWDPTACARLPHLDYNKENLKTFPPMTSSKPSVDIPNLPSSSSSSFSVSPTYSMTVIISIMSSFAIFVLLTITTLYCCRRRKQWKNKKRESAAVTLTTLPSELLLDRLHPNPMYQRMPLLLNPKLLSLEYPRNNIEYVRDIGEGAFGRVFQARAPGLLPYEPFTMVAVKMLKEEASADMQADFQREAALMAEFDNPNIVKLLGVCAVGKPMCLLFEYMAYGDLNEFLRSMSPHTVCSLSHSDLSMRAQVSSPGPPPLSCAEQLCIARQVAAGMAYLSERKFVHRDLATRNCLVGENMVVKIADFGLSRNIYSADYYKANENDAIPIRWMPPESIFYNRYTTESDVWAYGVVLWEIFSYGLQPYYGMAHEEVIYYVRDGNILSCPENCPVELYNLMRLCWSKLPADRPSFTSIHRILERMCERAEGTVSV

[7] = molecular target: full-length kinase/Nluc fusion proteins (Homo sapiens, UniProt O96013); assay: Apparent affinity (EC50) of energy transfer probes by titration onto live HEK293 cells expressing kinase/Nluc fusions (Table S1); type: binding; details: PAK4, Nluc C; read-out: Probe EC50
[8] = molecular target: full-length kinase/Nluc fusion proteins (Homo sapiens, UniProt P49759); assay: as above; type: binding; details: CLK1, Nluc N; read-out: Probe EC50
[9] = molecular target: full-length kinase/Nluc fusion proteins (Homo sapiens, UniProt Q13470); assay: as above; type: binding; details: TNK1 (NP_003976), Nluc orientation N; read-out: Probe EC50
[10] = molecular target: full-length kinase/Nluc fusion proteins (Homo sapiens, UniProt Q15418); assay: as above; type: binding; details: RPS6KA1 (NP_002944), Nluc orientation N; read-out: Probe EC50
[11] = molecular target: full-length kinase/Nluc fusion proteins (Homo sapiens, UniProt Q9NWZ3); assay: as above; type: binding; details: IRAK4, Nluc C; read-out: Probe EC50
[12] = test system: TRKA; details: read-out: Crizotinib IC50 Biochemical; ref Cui et al., 2011; cited from earlier work
[13] = test system: AXL; details: read-out: Live Cell IC50 Phospho Elisa; ref Cui et al., 2011; cited from earlier work
[14] = test system: INSR; details: read-out: Live Cell IC50 Phospho Elisa; ref Cui et al., 2011; cited from earlier work

Sequence of full-length kinase/Nluc fusion proteins (Homo sapiens, UniProt P06239) (P06239 whole entry, the tested form may be a part): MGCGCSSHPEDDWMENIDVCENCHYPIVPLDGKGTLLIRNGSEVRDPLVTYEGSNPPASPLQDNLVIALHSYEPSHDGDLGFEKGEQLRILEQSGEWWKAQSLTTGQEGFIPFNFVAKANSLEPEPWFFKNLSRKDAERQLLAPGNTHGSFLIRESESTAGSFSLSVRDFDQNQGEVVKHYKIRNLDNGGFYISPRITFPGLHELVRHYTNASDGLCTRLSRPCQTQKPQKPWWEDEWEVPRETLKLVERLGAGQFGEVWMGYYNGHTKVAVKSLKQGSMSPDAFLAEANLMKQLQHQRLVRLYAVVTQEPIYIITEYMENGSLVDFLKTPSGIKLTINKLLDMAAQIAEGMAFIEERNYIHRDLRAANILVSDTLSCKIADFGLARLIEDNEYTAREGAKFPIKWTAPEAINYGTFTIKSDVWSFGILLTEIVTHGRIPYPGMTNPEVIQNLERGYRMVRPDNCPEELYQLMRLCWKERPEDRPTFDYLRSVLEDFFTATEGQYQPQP
Sequence of full-length kinase/Nluc fusion proteins (Homo sapiens, UniProt Q13470) (Q13470 whole entry, the tested form may be a part): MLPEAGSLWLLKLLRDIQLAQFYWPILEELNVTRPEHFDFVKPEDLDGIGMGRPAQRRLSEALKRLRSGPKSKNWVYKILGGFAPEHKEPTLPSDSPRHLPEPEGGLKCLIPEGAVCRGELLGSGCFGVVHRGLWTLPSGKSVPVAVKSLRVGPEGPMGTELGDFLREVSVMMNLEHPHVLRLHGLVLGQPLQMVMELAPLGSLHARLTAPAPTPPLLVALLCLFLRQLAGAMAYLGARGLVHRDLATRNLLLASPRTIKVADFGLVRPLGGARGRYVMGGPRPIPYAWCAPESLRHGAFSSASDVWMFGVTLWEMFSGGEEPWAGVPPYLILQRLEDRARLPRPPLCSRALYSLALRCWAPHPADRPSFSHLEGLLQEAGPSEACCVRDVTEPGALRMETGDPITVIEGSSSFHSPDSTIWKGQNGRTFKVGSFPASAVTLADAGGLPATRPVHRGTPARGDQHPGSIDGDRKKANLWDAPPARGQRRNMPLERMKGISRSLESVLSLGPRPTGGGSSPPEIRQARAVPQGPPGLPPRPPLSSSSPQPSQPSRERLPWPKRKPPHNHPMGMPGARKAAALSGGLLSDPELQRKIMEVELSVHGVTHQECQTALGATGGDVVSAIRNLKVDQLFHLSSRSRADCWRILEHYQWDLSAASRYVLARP
Sequence of full-length kinase/Nluc fusion proteins (Homo sapiens, UniProt P54753) (P54753 34-998): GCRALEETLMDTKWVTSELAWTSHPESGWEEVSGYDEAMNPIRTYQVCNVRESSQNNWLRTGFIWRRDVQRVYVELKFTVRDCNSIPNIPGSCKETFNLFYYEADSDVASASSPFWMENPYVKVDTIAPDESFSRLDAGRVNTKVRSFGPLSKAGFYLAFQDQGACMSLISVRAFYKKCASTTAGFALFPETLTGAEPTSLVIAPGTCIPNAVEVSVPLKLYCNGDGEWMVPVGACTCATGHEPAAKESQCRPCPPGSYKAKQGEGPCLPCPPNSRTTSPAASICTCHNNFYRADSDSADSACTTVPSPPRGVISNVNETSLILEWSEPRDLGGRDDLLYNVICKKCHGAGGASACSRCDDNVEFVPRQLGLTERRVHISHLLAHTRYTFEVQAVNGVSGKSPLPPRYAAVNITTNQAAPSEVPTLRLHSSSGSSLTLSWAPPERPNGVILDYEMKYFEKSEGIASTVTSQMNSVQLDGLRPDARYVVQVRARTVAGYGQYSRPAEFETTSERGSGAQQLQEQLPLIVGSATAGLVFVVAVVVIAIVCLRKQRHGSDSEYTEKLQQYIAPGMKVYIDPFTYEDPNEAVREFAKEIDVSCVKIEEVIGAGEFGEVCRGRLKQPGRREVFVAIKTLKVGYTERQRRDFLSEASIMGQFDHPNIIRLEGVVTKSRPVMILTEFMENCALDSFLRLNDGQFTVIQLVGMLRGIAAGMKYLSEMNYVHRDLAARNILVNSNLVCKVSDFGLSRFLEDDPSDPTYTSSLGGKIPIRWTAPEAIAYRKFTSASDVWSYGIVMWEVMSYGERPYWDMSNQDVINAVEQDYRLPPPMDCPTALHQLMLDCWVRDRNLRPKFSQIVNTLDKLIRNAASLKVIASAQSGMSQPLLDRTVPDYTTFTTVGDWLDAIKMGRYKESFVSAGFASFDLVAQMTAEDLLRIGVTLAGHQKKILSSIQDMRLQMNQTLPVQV
Sequence of full-length kinase/Nluc fusion proteins (Homo sapiens, UniProt Q9NWZ3) (Q9NWZ3 whole entry, the tested form may be a part): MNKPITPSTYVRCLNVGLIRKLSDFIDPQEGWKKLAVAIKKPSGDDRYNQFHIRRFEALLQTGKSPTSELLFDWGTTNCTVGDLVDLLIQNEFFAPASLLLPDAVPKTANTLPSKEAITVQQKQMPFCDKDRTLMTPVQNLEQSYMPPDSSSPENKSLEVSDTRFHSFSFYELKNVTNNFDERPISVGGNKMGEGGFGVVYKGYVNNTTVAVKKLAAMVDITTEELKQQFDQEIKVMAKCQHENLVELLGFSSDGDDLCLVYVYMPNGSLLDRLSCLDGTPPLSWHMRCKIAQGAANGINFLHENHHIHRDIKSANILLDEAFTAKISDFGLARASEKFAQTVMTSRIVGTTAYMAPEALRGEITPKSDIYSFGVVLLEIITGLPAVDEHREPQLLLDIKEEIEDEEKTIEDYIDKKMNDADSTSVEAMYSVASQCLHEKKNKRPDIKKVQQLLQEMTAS
Sequence of full-length kinase/Nluc fusion proteins (Homo sapiens, UniProt O96013) (O96013 whole entry, the tested form may be a part): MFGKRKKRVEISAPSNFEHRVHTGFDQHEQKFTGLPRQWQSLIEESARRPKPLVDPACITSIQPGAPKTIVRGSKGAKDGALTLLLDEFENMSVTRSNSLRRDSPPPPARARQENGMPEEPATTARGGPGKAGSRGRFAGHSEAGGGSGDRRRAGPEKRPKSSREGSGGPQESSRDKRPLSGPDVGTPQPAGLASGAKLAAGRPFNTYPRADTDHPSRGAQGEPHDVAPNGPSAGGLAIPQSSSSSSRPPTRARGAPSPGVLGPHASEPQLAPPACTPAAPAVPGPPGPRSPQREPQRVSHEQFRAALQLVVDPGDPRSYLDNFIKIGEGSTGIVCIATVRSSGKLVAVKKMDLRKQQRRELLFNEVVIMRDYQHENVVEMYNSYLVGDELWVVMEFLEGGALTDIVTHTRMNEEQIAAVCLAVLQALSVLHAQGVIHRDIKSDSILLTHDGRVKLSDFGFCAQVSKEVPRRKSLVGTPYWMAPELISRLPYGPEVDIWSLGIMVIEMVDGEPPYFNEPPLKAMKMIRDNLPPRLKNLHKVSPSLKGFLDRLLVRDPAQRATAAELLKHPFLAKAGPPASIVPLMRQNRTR
Sequence of full-length kinase/Nluc fusion proteins (Homo sapiens, UniProt P49759) (P49759 whole entry, the tested form may be a part): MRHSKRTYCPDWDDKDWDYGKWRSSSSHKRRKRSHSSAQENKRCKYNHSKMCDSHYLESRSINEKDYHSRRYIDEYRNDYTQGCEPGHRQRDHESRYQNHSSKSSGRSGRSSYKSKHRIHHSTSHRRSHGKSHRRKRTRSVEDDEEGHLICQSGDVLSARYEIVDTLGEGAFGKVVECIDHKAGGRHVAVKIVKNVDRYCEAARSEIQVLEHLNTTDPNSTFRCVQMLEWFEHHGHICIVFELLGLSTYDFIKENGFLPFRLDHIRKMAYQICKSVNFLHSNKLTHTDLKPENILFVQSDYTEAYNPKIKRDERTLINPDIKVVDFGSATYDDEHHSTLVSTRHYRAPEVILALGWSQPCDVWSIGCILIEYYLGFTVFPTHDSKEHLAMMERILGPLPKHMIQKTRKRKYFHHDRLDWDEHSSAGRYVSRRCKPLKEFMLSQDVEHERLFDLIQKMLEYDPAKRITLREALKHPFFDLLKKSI
Sequence of full-length kinase/Nluc fusion proteins (Homo sapiens, UniProt P12931) (P12931 whole entry, the tested form may be a part): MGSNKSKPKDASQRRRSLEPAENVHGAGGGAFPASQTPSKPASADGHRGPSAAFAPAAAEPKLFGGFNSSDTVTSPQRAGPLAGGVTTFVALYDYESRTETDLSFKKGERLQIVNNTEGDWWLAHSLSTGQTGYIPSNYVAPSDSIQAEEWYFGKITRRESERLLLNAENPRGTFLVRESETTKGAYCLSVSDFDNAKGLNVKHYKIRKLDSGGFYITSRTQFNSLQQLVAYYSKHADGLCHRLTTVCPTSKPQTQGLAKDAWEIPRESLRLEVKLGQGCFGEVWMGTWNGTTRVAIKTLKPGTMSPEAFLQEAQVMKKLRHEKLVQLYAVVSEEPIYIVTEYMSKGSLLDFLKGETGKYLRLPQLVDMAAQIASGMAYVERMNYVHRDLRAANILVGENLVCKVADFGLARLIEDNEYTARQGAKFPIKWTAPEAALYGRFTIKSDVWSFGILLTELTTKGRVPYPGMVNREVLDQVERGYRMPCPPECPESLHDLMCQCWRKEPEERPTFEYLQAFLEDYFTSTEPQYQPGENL
Sequence of full-length kinase/Nluc fusion proteins (Homo sapiens, UniProt Q15418) (Q15418 whole entry, the tested form may be a part): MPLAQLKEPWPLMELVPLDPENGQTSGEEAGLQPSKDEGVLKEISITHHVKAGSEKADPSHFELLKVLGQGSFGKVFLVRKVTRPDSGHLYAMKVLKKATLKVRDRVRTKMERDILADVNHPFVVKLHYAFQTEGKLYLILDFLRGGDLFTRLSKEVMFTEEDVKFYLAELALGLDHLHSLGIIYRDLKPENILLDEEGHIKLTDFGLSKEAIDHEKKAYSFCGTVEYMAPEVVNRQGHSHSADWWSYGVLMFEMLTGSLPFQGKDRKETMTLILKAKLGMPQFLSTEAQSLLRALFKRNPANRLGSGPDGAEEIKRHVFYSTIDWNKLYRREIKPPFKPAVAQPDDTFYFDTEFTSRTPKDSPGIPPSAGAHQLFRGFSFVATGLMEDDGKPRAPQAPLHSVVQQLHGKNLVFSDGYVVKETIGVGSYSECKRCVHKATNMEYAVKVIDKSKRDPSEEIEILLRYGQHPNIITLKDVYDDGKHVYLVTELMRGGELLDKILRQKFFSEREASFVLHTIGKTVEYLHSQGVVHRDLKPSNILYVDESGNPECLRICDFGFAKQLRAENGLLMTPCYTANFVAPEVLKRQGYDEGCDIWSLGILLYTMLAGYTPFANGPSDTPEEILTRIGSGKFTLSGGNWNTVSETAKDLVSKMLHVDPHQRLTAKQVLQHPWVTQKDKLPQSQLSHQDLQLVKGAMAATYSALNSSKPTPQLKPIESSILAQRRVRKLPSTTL

Cc1nc(Nc2ncc(C(=O)Nc3c(C)cccc3Cl)s2)cc(N2CCN(CCOCCNC(=O)CCc3ccc4n3[B-](F)(F)[N+]3=C(c5ccc[nH]5)C=CC3=C4)CC2)n1 [Energy Transfer Probe 6, 2-((6-(4-(2-(2-aminoethoxy)ethyl)piperazin-1-yl)-2-methylpyrimidin-4-yl)amino)-N-(2-chloro-6-methylphenyl)thiazole-5-carboxamide-NanoBRET 590]
EC50 [1]: > 1 µM
EC50 ([2]; Nluc C (probe 6)): > 1 µM
EC50 [3]: 0.3 µM
EC50 [4]: 0.2 µM
EC50 ([5]; ATP Depleted): > 1 µM
EC50 ([5]; Live): > 1 µM
EC50 ([5]; Permeabilized): 0.007 ± 0.003 µM

CNC(=O)c1ccccc1Nc1nc(Nc2ccc(N3CCN(C(=O)CCOCCOCCOCCOCCNC(=O)CCc4ccc5n4[B-](F)(F)[N+]4=C(c6ccc[nH]6)C=CC4=C5)CC3)cc2)ncc1Cl [Energy Transfer Probe 5, 2-((2-((4-(4-(1-amino-3,6,9,12-tetraoxapentadecan-15-oyl)piperazin-1-yl)phenyl)amino)-5-chloropyrimidin-4-yl)amino)-N-methylbenzamide-NanoBRET 590]
EC50 ([6]; ATP Depleted): > 1 µM
EC50 ([6]; Live): > 1 µM
EC50 ([6]; Permeabilized): 0.18 ± 0.02 µM
EC50 [7]: > 1 µM
EC50 ([2]; Nluc C (probe 5)): > 1 µM
EC50 [8]: > 1 µM
EC50 [9]: 0.05 µM
EC50 [10]: 0.2 µM
EC50 [11]: > 1 µM

C[C@@H](Oc1cc(-c2cnn(C3CCNCC3)c2)cnc1N)c1c(Cl)ccc(F)c1Cl [Crizotinib]
receptor occupancy at 1 µM ([5]; read-out: cellular occupancy): < 10%

Source: paper PMC5814754, “Quantitative, Wide-Spectrum Kinase Profiling in Live Cells for Assessing the Effect of Cellular ATP on Target Engagement” (Cell Chemical Biology, 2018)
